Measured values reported in the supplement of paper PMC10307832.

Legend:
Assay in all cases: relative viability (nuclei count vs DMSO), 5 days (fraction); higher = more cells survive
[1] = compound: CCN1C(=O)C2=CC(=C(N=C2N(C1=O)C3CC3)N)C(=O)N + CC1(C)CCC(c2ccc(Cl)cc2)=C(CN2CCN(c3ccc(C(=O)NS(=O)(=O)c4ccc(N[C@H](CCN5CCOCC5)CSc5ccccc5)c(S(=O)(=O)C(F)(F)F)c4)cc3)CC2)C1 [Navitoclax] (partner 0.5 µM)
Outline: (§1)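 Relative viability equals treated-well nuclei counts divided by vehicle-well nuclei counts. Counts came from 4× images of lung cancer cell lines grown in 1536-well plates for 5 days after pin-tool dosing on the day after seeding. Dosing used one drug alone or a fixed anchor-drug dose plus five library-drug doses (not always all listed) in √10 steps, and values are medians of duplicate plates.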

[2] = compound: CCN1C(=O)C2=CC(=C(N=C2N(C1=O)C3CC3)N)C(=O)N + COc1cc2c(Oc3ccc(NC(=O)C4(C(=O)Nc5ccc(F)cc5)CC4)cc3F)ccnc2cc1OCCCN1CCOCC1 [Foretinib] (partner 0.25 µM)
Outline: as §1

[3] = compound: CCN1C(=O)C2=CC(=C(N=C2N(C1=O)C3CC3)N)C(=O)N + Cc1cc(Nc2cc(N3CCN(C)CC3)nc(Sc3ccc(NC(=O)C4CC4)cc3)n2)n[nH]1 [Tozasertib] (partner 0.1 µM)
Outline: as §1

[4] = compound: CCN1C(=O)C2=CC(=C(N=C2N(C1=O)C3CC3)N)C(=O)N + Cc1nc(Nc2ncc(C(=O)Nc3c(C)cccc3Cl)s2)cc(N2CCN(CCO)CC2)n1 [Dasatinib] (partner 0.075 µM)
Outline: as §1

[5] = compound: CCN1C(=O)C2=CC(=C(N=C2N(C1=O)C3CC3)N)C(=O)N + Nc1ncn([C@H]2C[C@H](O)[C@@H](CO)O2)c(=O)n1 [Decitabine] (partner 2 µM)
Outline: as §1

Cell Line	relative viability ([1]; first compound 0.253 µM)	relative viability ([1]; first compound 0.8 µM)	relative viability ([1]; first compound 2.53 µM)	relative viability ([1]; first compound 8 µM)	relative viability ([2]; first compound 0.253 µM)	relative viability ([2]; first compound 0.8 µM)	relative viability ([2]; first compound 2.53 µM)	relative viability ([2]; first compound 8 µM)	relative viability ([3]; first compound 0.253 µM)	relative viability ([3]; first compound 0.8 µM)	relative viability ([3]; first compound 2.53 µM)	relative viability ([3]; first compound 8 µM)	relative viability ([4]; first compound 0.253 µM)	relative viability ([4]; first compound 0.8 µM)	relative viability ([4]; first compound 2.53 µM)	relative viability ([4]; first compound 8 µM)	relative viability ([5]; first compound 0.253 µM)	relative viability ([5]; first compound 0.8 µM)	relative viability ([5]; first compound 2.53 µM)	relative viability ([5]; first compound 8 µM)
201T	1.26	1.21	1.14	1.22	1.01	1.07	1.15	1.2	1.01	0.993	0.973	1.04	0.559	0.518	0.574	0.496	0.866	0.81	0.814	0.844
A549	1.14	1.13	1.22	1.16	0.898	1.06	0.809	1.01									0.215	0.341	0.218	0.11
A-427	0.994	0.965	0.95	0.98	1.13	1.13	1.08	1.21	0.223	0.226	0.208	0.206	0.729	0.825	0.744	0.779	0.552	0.537	0.521	0.563
ABC-1					1.19	0.873	0.908	1.05	0.17	0.167	0.178	0.149	0.559	0.473	0.565	0.56	0.996		1.17	1.05
BEN	0.074	0.0565	0.0783	0.0841	1.13	0.618	0.69	0.558	0.629	0.528	0.443	0.525	0.368	0.267	0.313	0.356	0.814	0.675	0.734	0.657
CAL-12T	1.14	1.1	1.06	1.2	1.09	1.18	1.09	1.01	0.271	0.269	0.282	0.223	0.466	0.377	0.452	0.462				
COR-L23	1.05	0.939	1.03	1.04	0.91	1.03	1.08	0.947	0.197	0.183	0.164	0.161	0.573	0.562	0.456	0.531	0.442	0.467	0.428	0.375
COR-L 105	0.847	0.74	0.586	0.794	0.748	1.01	0.864	1.01	0.346	0.355	0.403	0.327	0.358	0.261	0.264	0.304	0.712	0.657	0.597	0.785
ChaGo-K-1	1.05	0.782	1.11	0.958	0.873	0.97	0.895	0.948	0.218	0.215	0.221	0.2	0.6	0.664	0.614	0.527	0.529	0.555	0.489	0.449
EKVX	0.929	0.897	0.952	0.989	0.785	0.743	0.875	0.639	0.359	0.494	0.358	0.384	0.496	0.479	0.461	0.469	0.352	0.33	0.352	0.296
EMC-BAC-2	1.2	1.17	1.18	1.32	1.17	1	0.935	1.17	0.319	0.249	0.255	0.304	0.35	0.305	0.328	0.318	1.05		0.89	0.94
EPLC-272H	0.994	1.26	1.13	1.2	0.84	0.662	0.613	0.686	0.289	0.227	0.229	0.224	0.425	0.394	0.377	0.431	0.362	0.376	0.399	0.379
H3255	0.625	0.509	0.617	0.559	0.856	0.802	0.932	1.01	0.606	0.682	0.533	1.3	0.403	0.444	0.425	0.347	0.582	0.582	0.61	0.604
HARA	1.15	1.13	1.08	1.12	0.884	0.989	0.857	0.926	0.12	0.129	0.0936	0.111	0.321	0.234	0.233	0.246	0.473	0.587	0.402	0.721
HCC-15	0.692	0.753	0.683	0.69	1.1	1.05	1.07	0.985	0.46	0.389	0.385	0.502	0.634	0.598	0.61	0.598	0.596	0.663	0.624	0.603
HCC-44	1.04	0.994	0.985	1.02					0.634	0.965	0.789	0.875					0.999	0.999	0.885	0.872
HCC-78	0.436	0.788	0.691	0.94	0.532		0.582	0.502	0.422		0.289	0.453	0.368		0.595	0.365	0.681	0.636	0.726	0.639
HCC-366	0.985	0.991	1.1	1.05		0.91	0.951	0.919		0.0821	0.0697	0.0668		0.656	0.518	0.611	0.294	0.346	0.341	0.284
HCC-827	1	1.01	0.98	0.954	0.982	0.993	0.99	1.06	0.395	0.387	0.457	0.445	0.348	0.348	0.266	0.284	0.342	0.284	0.332	0.319

Cell Line	relative viability ([1]; first compound 0.253 µM)	relative viability ([1]; first compound 0.8 µM)	relative viability ([1]; first compound 2.53 µM)	relative viability ([1]; first compound 8 µM)	relative viability ([2]; first compound 0.253 µM)	relative viability ([2]; first compound 0.8 µM)	relative viability ([2]; first compound 2.53 µM)	relative viability ([2]; first compound 8 µM)	relative viability ([3]; first compound 0.253 µM)	relative viability ([3]; first compound 0.8 µM)	relative viability ([3]; first compound 2.53 µM)	relative viability ([3]; first compound 8 µM)	relative viability ([4]; first compound 0.253 µM)	relative viability ([4]; first compound 0.8 µM)	relative viability ([4]; first compound 2.53 µM)	relative viability ([4]; first compound 8 µM)	relative viability ([5]; first compound 0.253 µM)	relative viability ([5]; first compound 0.8 µM)	relative viability ([5]; first compound 2.53 µM)	relative viability ([5]; first compound 8 µM)
HOP-62	1.08	1.11	0.969	0.924	1	1.11	1.03	1.03	0.367	0.353	0.382	0.371	0.715	0.614	0.695	0.598	0.242	0.218	0.161	0.184
IA-LM	0.815	0.583	0.768	0.791	1.21	1.03	0.963	1.44												
LC-2-ad	0.416	0.45	0.462	0.518	0.926	0.855	0.986	0.94	0.399	0.507	0.484	0.452	0.537	0.526	0.652	0.698	0.765	0.735	0.681	0.777
LCLC-97TM1	0.431			0.53	0.869	0.866	0.86	1.1	0.218	0.166	0.204	0.25	0.793	0.948	0.855	0.883	0.207	0.225	0.244	0.262
LCLC-103H					0.852	0.721	0.728	0.922	0.468	0.487	0.472	0.48	0.453	0.426	0.457	0.445	0.723	0.699	0.753	0.702
LK-2	0.934	0.937	0.976	1.06	1.03	1.11	1.05	1.6	0.184	0.173	0.149	0.161	0.312	0.294	0.303	0.221	0.249	0.31	0.317	0.277
LOU-NH91	0.656	0.68	0.701	0.689	0.847	0.855	0.978	0.916	0.603	0.649	0.635	0.683	0.499	0.526	0.54	0.527	0.849	0.781	0.768	0.798
LU99A	0.778	0.741	0.747	0.875	0.732	0.8	0.789	0.857	0.307	0.277	0.252	0.238	0.541	0.548	0.528	0.511	0.765	0.952	0.873	0.828
NCI-H358					0.704	0.762	0.771	0.676	0.0962	0.114	0.0945	0.119	0.157	0.148	0.189	0.17	0.193	0.207	0.19	0.227
NCI-H522									0.593	0.478	0.496	0.489	0.761	0.858	0.992	0.753	0.56	0.73	0.748	0.723
NCI-H650					0.969	1.04	0.954	0.944	0.704	0.759	0.67	0.702	0.434	0.349	0.424	0.373	0.331	0.325	0.329	0.283
NCI-H661					0.989	1.08	0.939	1.01	0.339	0.356	0.354	0.335	0.911	0.911	0.898	0.895	0.544	0.551	0.517	0.543
NCI-H1563					0.901	0.926	0.933	1.01					0.467	0.41	0.46	0.422				
NCI-H1703	1.01	1.04	1.14	1.46	0.393	0.432	0.328	0.372												
NCI-H1792	0.648	0.533	0.834	0.564									0.763	0.826	0.879	0.567	0.652	0.54	0.494	0.576
NCI-H2228	0.996	1.29	0.925	0.838	0.95	0.982	0.82	0.839	0.205	0.189	0.233	0.162	0.505	0.467	0.508	0.55				
NCI-H2342					1.08	0.941	1.1	1.03	0.512	0.533	0.544	0.54	0.27	0.294	0.349	0.323	0.642	0.729	0.701	0.766
SW 900					1.03	0.996	0.837	1.03	0.553	0.507	0.457	0.446	0.447	0.599	0.68	0.511	0.347	0.511	0.49	0.443
